Results taken from patent US10800755B2, “2,6-disubstituted pyridine derivative” (Sumitomo Dainippon Pharma Co., Ltd., priority 2017, dated 2020).
Like-named read-outs stand apart in the source and are kept apart here.

What was measured:
human D4 receptor [1] = target: T1, human D4 receptor (Homo sapiens (Human), UniProt P21917); assay: Test 2: binding activity to human D4 receptor ([3H] dopamine, CHO cell membrane)
Procedure: (§1) Test 2: Evaluation of Binding Activity to Human 5-HT1A Receptor, Human D4 Receptor, and Human D2 Receptor
(§2) CHO cell membrane fraction in which human 5-HT1A receptor, human D4 receptor, and human D2 receptor were expressed was purchased from PerkinElmer Co., Ltd. In the evaluation test of binding, the test compound dissolved in DMSO, each receptor membrane preparation diluted with buffer solution, and [3H] […] The nonspecific binding to each receptor was evaluated by a competition binding experiment in the presence of 10 μmol/L 8-OH-DPAT, 10 μmol/L dopamine, or 10 μmol/L spiperone, respectively.

human 5-HT1A receptor [2] = target: T2, human 5-HT1A receptor (Homo sapiens (Human), UniProt P08908); assay: Test 1: agonistic activity for human 5-HT1A receptor (aequorin/Gα16 luminescence in CHO-K1 cell); type: cell-based; conditions: for 5-HT1A agonistic activity Emax / Emax: 100% = 10 μmol/L endogenous ligand; for EC50: CHO-K1 cell, aequorin luminescence; for Emax: CHO-K1
T2 sequence (P08908 whole entry): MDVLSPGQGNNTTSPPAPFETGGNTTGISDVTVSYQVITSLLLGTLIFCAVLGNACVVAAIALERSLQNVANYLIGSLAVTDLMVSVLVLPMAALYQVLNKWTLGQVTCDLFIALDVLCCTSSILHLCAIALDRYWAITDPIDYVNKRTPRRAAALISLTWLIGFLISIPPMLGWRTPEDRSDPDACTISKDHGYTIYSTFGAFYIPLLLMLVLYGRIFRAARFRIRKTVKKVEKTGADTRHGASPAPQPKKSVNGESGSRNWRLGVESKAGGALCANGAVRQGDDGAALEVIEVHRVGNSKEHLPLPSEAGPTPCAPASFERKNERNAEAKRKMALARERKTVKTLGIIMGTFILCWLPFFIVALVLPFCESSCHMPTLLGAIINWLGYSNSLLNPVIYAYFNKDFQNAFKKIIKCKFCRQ
Procedure: (§3) Test 1: Evaluation of Agonistic Activity for Human 5-HT1A Receptor and Human D4 Receptor
(§4) Aequorin, Gα16 proteins, and each receptor were transiently expressed in CHO-K1 cell (Chinese hamster ovary), and seeded to 384-well plate. The plate was incubated in a CO2 incubator at 37° C. for 24 hours. Each example compound dissolved in DMSO was added thereto, and the change of luminescence amount was measured with Hamamatsu FDSS/μCELL System (Hamamatsu Photonics).

human D2 receptor = human D2 receptor (Homo sapiens (Human), UniProt P14416); assay: Test 2: binding activity to human D2 receptor ([3H] spiperone, CHO cell membrane)
Chain of human D2 receptor (P14416 whole entry): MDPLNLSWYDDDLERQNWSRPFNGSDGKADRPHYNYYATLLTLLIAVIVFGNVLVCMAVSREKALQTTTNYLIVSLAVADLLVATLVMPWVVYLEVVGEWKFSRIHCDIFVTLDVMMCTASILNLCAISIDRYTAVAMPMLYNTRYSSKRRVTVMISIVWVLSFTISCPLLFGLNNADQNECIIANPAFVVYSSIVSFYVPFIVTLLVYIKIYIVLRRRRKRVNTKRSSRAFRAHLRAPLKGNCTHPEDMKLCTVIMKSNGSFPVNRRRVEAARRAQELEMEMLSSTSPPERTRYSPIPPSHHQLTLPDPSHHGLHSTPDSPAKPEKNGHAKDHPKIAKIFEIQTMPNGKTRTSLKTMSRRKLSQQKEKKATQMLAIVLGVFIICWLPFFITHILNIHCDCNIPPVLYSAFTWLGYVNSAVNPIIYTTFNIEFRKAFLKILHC
Procedure: as §1, §2

human 5-HT1A receptor [3] = target: T2, human 5-HT1A receptor; assay: Test 2: binding activity to human 5-HT1A receptor ([3H] 8-OH-DPAT, CHO cell membrane)
Procedure: as §1, §2

human D4 receptor [4] = target: T1, human D4 receptor; assay: Test 1: agonistic activity for human D4 receptor (aequorin/Gα16 luminescence in CHO-K1 cell); type: cell-based; conditions: for D4 agonistic activity Emax / Emax: 100% = 10 μmol/L endogenous ligand; for EC50: CHO-K1 cell, aequorin luminescence; for Emax: CHO-K1
Procedure: as §3, §4

[5] = Test 3-1: metabolic stability test of human liver microsome (0.1 mg/mL); type: in vitro ADME; conditions: test compound 0.1 μmol/L, 37° C., 30 minutes
Procedure: Test 3-1: Metabolic Stability Test of Human Liver Microsome
The stability of the present compounds for human liver microsome metabolism was evaluated as mentioned below. The used human liver microsome was obtained from Xenontech. Human liver microsome, NADPH, and each test compound were mixed in 25 mmol/L phosphate buffer solution (pH 7.4) to adjust each concentration as shown below, and the mixture was incubated at 37° C. for 30 minutes. • human liver microsome: 0.1 mg/mL • NAPDH: 3.2 mmol/L • test compound: 0.1 μmol/L
The residual ratio of the test compound in each sample after the incubation for 30 minutes was measured with a LC-MS, and the metabolic stability of human liver microsome was calculated about each test compound with the following formula. Metabolic stability of human liver microsome (mL/min/mg protein)=−LN (residual ratio)/“reaction time”/“concentration of human liver microsome”

hERG channel = hERG channel (Homo sapiens (Human), UniProt Q12809); assay: Test 5-2: activity for inhibiting hERG channel (whole-cell patch clamp, hERG-CHO cell, Qube); type: cell-based; conditions: read-out: hERG inhibition IC50
Chain of hERG channel (Q12809 whole entry): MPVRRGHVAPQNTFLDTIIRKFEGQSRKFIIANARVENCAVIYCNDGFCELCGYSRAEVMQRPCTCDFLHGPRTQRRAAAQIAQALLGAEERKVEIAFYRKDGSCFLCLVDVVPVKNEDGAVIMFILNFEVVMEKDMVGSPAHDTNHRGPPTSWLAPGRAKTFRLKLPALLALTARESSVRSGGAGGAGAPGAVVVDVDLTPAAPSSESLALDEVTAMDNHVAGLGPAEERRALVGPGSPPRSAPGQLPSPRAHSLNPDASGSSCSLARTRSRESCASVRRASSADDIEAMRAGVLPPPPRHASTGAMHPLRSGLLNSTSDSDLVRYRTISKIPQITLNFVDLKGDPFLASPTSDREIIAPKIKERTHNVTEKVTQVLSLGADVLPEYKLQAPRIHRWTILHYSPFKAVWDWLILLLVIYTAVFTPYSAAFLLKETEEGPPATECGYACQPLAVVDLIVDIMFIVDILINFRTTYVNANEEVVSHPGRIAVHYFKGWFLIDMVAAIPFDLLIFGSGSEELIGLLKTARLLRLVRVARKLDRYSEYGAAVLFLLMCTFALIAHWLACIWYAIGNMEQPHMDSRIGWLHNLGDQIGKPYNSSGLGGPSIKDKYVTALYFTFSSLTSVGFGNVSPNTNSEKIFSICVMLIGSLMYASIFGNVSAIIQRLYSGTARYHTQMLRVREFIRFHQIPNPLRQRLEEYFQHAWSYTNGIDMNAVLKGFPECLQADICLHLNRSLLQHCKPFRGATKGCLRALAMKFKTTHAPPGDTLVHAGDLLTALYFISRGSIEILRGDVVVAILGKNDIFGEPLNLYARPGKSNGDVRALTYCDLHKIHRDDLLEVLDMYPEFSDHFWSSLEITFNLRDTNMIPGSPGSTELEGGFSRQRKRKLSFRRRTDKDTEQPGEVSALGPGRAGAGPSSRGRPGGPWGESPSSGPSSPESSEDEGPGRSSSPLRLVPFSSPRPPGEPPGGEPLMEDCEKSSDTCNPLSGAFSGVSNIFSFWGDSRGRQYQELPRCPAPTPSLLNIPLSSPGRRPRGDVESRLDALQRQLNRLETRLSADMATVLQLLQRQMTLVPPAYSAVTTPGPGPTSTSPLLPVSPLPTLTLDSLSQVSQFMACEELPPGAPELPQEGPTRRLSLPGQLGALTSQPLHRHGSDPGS
Procedure: Test 5-2: Evaluation of Activity for Inhibiting hERG Channel
The activity of the present compound for inhibiting hERG channel was measured by whole-cell patch clamp method with auto patch clamp system, using CHO cell wherein hERG channel involved in human rapidly activating delayed rectifier potassium current (IKr) was forcibly expressed.
hERG-CHO cell purchased from ChanTest was incubated at 37° C. in a CO2 incubator, and the cell was exfoliated from the flask with trypsin to prepare a cell suspension, shortly before the hERG current measurement.
Extracellular fluid: 2 mmol/L CaCl2, 1 mmol/L MgCl2, 10 mmol/L HEPES, 4 mmol/L KCl, 145 mmol/L NaCl, 10 mmol/L glucose
Intracellular fluid: 10 mmol/L HEPES, 10 mmol/L EGTA, 20 mmol/L KCl, 130 mmol/L KF
Test compound solution: The compound was dissolved in DMSO by adjusting the concentration to 2 mmol/L or 20 mmol/L to prepare each test compound solution. […] (Measurement of Current Value and Data Analysis)
The cell suspension, the extracellular fluid, the intracellular fluid, and the measurement plate were set in an auto patch clamp system, and the hERG current was measured by whole-cell patch clamp method. The voltage-protocol was as follows: the holding potential was adjusted to −80 mV, the depolarizing pulse was added at −50 mV to +20 mV for 5 seconds, the repolarizing pulse was added at −50 mV for 5 seconds, then the potential was returned to the holding potential. Each pulse interval was 15 seconds. The data analysis was carried out with Qube Assay Software (Sophion Scientific). The test was carried out applying increscently 4 concentrations of each test compound, and the average of the peak tail currents that were obtained by the last 3 stimulations in each applied concentration was made to be the evaluated data. By using the current inhibition rate for the pre-applied current at each concentration of each test compound, IC50 value was calculated by Hill equation with the software.

[6] = [3H] dopamine, read-out: D4 binding affinity (Ki value)
[7] = [3H] spiperone, read-out: D2 binding affinity (Ki value)
[8] = [3H] 8-OH-DPAT, read-out: 5-HT1A binding affinity (Ki value)

T1 sequence (P21917 whole entry): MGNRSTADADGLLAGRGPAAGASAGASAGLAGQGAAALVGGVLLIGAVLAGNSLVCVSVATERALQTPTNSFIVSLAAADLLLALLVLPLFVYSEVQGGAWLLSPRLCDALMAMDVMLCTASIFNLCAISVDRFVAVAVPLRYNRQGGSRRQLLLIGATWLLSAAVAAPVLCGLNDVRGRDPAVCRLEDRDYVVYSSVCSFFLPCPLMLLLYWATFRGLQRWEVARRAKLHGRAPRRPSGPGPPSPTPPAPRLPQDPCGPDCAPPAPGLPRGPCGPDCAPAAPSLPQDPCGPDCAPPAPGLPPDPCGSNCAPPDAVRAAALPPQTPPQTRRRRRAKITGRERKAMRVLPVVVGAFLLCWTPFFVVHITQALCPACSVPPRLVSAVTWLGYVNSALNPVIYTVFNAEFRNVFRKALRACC

Ki (human D4 receptor [1]; [6]) [nM]	EC50 (human 5-HT1A receptor [2]) [nM]	Ki (human D2 receptor; [7]) [nM]	Ki (human 5-HT1A receptor [3]; [8]) [nM]	EC50 (human D4 receptor [4]) [nM]	Emax (human 5-HT1A receptor [2]) [%]	Emax (human D4 receptor [4]) [%]	SMILES	5-HT1A agonistic activity Emax (human 5-HT1A receptor [2]) [%]	D4 agonistic activity Emax (human D4 receptor [4]) [%]	Metabolic stability of human liver microsome [5] [mL/min/mg protein]	Ki (human D4 receptor [1]) [nM]	IC50 (hERG channel) [nM]	Ki (human D2 receptor) [nM]	Ki (human 5-HT1A receptor [3]) [nM]
505	100	> 10000	13	41	33	55	Cc1cccc(C2CCN(CCNC(=O)C3CCCOC3)CC2)n1 (stereo not drawn) [Example 15]			<0.05		> 10000		
201	84	2170	15	65	30	62	O=C(NCCN1CCC(c2cccc(C(F)(F)F)n2)CC1)[C@H]1C[C@@H]2CC[C@H]1O2 [Example 21]			<0.05		> 10000		
2240	595	> 10000	58	57	25	57	Cc1cccc(C2CCN(CCNC(=O)C3CCOC3)CC2)n1 (stereo not drawn) [Example 22]							
408	632	> 10000	166	62	28	59	O=C(NCCN1CCC(c2cccc(C(F)(F)F)n2)CC1)C1CCOC1 (stereo not drawn) [Example 23]							
3380	67	> 10000	27	32	50	62	Cc1cccc(C2CCN(CCNC(=O)C3CCCO3)CC2)n1 (stereo not drawn) [Example 24]							
1900	395	> 10000	79	3390	43	36	CO[C@H]1CC[C@H](C(=O)NCCN2CCC(c3cccc(C)n3)CC2)CC1 [Example 26]							
2470	570	> 10000	77	1650	44	51	CO[C@H]1CC[C@H](C(=O)NCCN2CCC(c3cccc(C(F)(F)F)n3)CC2)CC1 [Example 27]							
96	67	> 10000	42	7	51	67	O=C(NCCN1CCC(c2cccc(F)n2)CC1)C1CCOCC1 [Example 32]							
2260	525	> 10000	278	64	27	52	N#Cc1cccc(C2CCN(CCNC(=O)C3CCOCC3)CC2)n1 [Example 35, N-{2-[4-(6-Cyanopyridin-2-yl)piperidin-1-yl]ethyl}-tetrahydro-2H-pyran-4-carboxamide]							
120	279	> 10000	132	31	38	58	Nc1cccc(C2CCN(CCNC(=O)C3CCOCC3)CC2)n1 [Example 36, N-{2-[4-(6-Aminopyridin-2-yl)piperidin-1-yl]ethyl}-tetrahydro-2H-pyran-4-carboxamide]							
73	343	> 10000	108	52	40	57	CNc1cccc(C2CCN(CCNC(=O)C3CCOCC3)CC2)n1 [Example 37, N-(2-{4-[6-(Methylamino)pyridin-2-yl]piperidin-1-yl}ethyl)-tetrahydro-2H-pyran-4-carboxamide]							

SMILES	Ki (human D4 receptor [1]; [6]) [nM]	EC50 (human 5-HT1A receptor [2]) [nM]	Ki (human D2 receptor; [7]) [nM]	Ki (human 5-HT1A receptor [3]; [8]) [nM]	EC50 (human D4 receptor [4]) [nM]	Emax (human 5-HT1A receptor [2]) [%]	Emax (human D4 receptor [4]) [%]	5-HT1A agonistic activity Emax (human 5-HT1A receptor [2]) [%]	D4 agonistic activity Emax (human D4 receptor [4]) [%]	Metabolic stability of human liver microsome [5] [mL/min/mg protein]	Ki (human D4 receptor [1]) [nM]	IC50 (hERG channel) [nM]	Ki (human D2 receptor) [nM]	Ki (human 5-HT1A receptor [3]) [nM]
COCC(C)(C)C(=O)NCCN1CCC(c2cccc(C)n2)CC1 [Example 5]	170	42	> 10000	80	55.8			100	57	<0.01				
COCC(C)(C)C(=O)NCCN1CCC(c2cccc(C(F)(F)F)n2)CC1 [Example 6]	101	44	> 10000	37	< 10			96	58	<0.01				
O=C(NCCN1CC=C(c2cccc(C(F)(F)F)n2)CC1)C1CCC(F)(F)CC1 [Example 12, 4,4-Difluoro-N-{2-[6-(trifluoromethyl)-3′,6′-dihydro[2,4′-bipyridin]-1′ (2′H)-yl]ethyl}-cyclohexane-1-carboxamide]		< 10	357	0.2	35	43	52			0.115	4.5	3500		
Cc1cccc(C2=CCN(CCNC(=O)[C@H]3C[C@@H]4CC[C@H]3O4)CC2)n1 [Example 13]		< 10	> 10000	1.1	< 10	48	55			<0.05	24	> 10000		
Cc1cccc(C2=CCN(CCNC(=O)C3CCC(F)(F)CC3)CC2)n1 [Example 14]		< 10	2440	0.1	< 10	41	53			0.084	3	8100		
O=C(NCCN1CC=C(c2cccc(C(F)(F)F)n2)CC1)C1CCCOC1 (stereo not drawn) [Example 16, N-{2-[6-(Trifluoromethyl)-3′,6′-dihydro[2,4′-bipyridin]-1′ (2′H)-yl]ethyl}-tetrahydro-2H-pyran-3-carboxamide]		43	1690	6	31	36	51			<0.05	27	> 10000		
COCC(C)(C)C(=O)NCCN1CC=C(c2cccc(C)n2)CC1 [Example 17]		94	> 10000	26	44	30	51				91			
COCC(C)(C)C(=O)NCCN1CC=C(c2cccc(C(F)(F)F)n2)CC1 [Example 18]		68	2210	21	37	43	61			<0.05	19	> 10000		
O=C(NCCN1CC=C(c2cccc(C(F)(F)F)n2)CC1)C1CCOCC1 [Example 19]		< 10	> 10000	0.8	9	65	84				8			
Cc1cccc(C2=CCN(CCNC(=O)C3CCCCO3)CC2)n1 (stereo not drawn) [Example 20]		57			15	40	60			<0.05	92	> 10000	> 10000	6.8
